The values that follow come from BindingDB's records for doi:10.1021/jm980439q (State University of New York, 1999).

This experiment deals with Voltage-dependent L-type calcium channel subunit alpha-1C (Cavia porcellus). Put plainly: Displacement of [3H](+)-PN200-110 binding to calcium channels in guinea pig cardiac membranes. On the technique in general: Loss of bound radioactivity is the signal in a displacement assay; it reports binding, not function.

For orientation: Ki means a measure of affinity in units of concentration, obtained from inhibition or displacement.

On to `CCOC(=O)C1=C(C)N=C(C)C(C(=O)OCC)C1c1c(C)noc1CCc1cccc2ccccc12` (stereo not drawn) [2,6-Dimethyl-4-[3-methyl-5-(2-naphthalen-1-yl-ethyl)-isoxazol-4-yl]-1,4-dihydro-pyridine-3,5-dicarboxylic acid diethyl ester], for which the Ki stood at 4.1 nM.
Consider `CCOC(=O)C1=C(C)N=C(C)C(C(=O)OCC)C1c1c(C)noc1CCc1ccc2ccccc2c1` (stereo not drawn) [2,6-Dimethyl-4-[3-methyl-5-(2-naphthalen-2-yl-ethyl)-isoxazol-4-yl]-1,4-dihydro-pyridine-3,5-dicarboxylic acid diethyl ester], for which the inhibitory constant (Ki) was 20 nM.
As for `CCOC(=O)C1=C(C)N=C(C)C(C(=O)OCC)C1c1c(C)noc1CCc1ccccc1-c1ccccc1` (stereo not drawn) [4-[5-(2-Biphenyl-2-yl-ethyl)-3-methyl-isoxazol-4-yl]-2,6-dimethyl-1,4-dihydro-pyridine-3,5-dicarboxylic acid diethyl ester], the Ki turned out to be 91 nM.
